In patent US10251863B2, “Parasiticidal compositions comprising indole derivatives, methods and uses thereof” (MERIAL, INC., priority 2014, dated 2019):

These compounds were tested on adult F. hepatica (assay: in vitro test on adult F. hepatica (viability scale)). Conditions: Fasciola hepatica, 72 h, read-out: Effective in vitro concentration.
Type: cell-based
Protocol: Representative compounds of formula (I) were tested in vitro against F. hepatica as follows. Adult F. hepatica (fluke) were collected from infected bovine livers obtained from a local abattoir (Basel, Switzerland). The worms were quickly washed with 0.9% (w/v) NaCl and placed in 6 or 12-well plates (Costar). Culture medium in each well contained RPMI 1640 (Gibco) at 37° C., which was supplemented with antibiotics (50 μg/ml streptomycin and 50 IU/ml penicillin; Gibco) and 80 μg/ml of a haemin solution. The haemin solution was prepared as follows: 5 mg haemin was dissolved in 1 ml of 0.1M aqueous solution of NaOH, and 3.95 ml of PBS (pH=7.4) and 0.05 ml of 1M HCl were added to adjust the pH to 7.1-7.4 (Keiser and Morson, 2008). Cultures were kept at 37° C. in an atmosphere of 5% CO2. To monitor the temporal effects of test compounds in vitro, 3 flukes were incubated for 72 h in the presence of 50 or 100 μg/ml of each test compound. At 24, 48, and 72 h, worms were examined using a dissecting microscope. For the adult worms, a viability scale ranging from 3 (normal movements) to 0 (death; no movement observed for two min using a microscope) was used.
Table 1 lists representative compounds of formula (I) of the present invention and their effective in vitro concentrations against F. hepatica. All compounds were tested in vitro on the adult stage of F. hepatica as described above. Each data point refers to at least two independent experiments having at least three worms per concentration.

| SMILES | minimal effective concentration [µg/mL] |
| --- | --- |
| N#Cc1ccc(-c2cc3cc(C(F)(F)F)[nH]c3cc2Cl)c(Cl)c1 [Compound 355, 3-chloro-4-[6-chloro-2-(trifluoromethyl)-1H-indol-5-yl]benzonitrile] | > 2.5 |

Same assay, conditions: Fasciola hepatica; adult stage of F. hepatica, incubated up to 72 h, viability scale 3 to 0; at least two independent experiments, at least three worms per concentration; read-out: Effective in vitro concentration

| SMILES | minimal effective concentration [µg/mL] |
| --- | --- |
| FC(F)(F)c1ccc(Oc2cc3cc(C(F)(F)F)[nH]c3cc2Cl)cc1 [Compound 352, 6-chloro-2-(trifluoromethyl)-5-[4-(trifluoromethyl)phenoxy]-1H-indole] | > 10 |
| O=C(O)c1ccccc1-c1cc2cc(C(F)(F)F)[nH]c2cc1Cl [Compound 358, 2-[6-Chloro-2-(trifluoromethyl)-1H-indol-5-yl]benzoic acid] | > 2.5 |
| FC(F)(F)c1cc2cc(Oc3ccccc3Cl)c(Cl)cc2[nH]1 [Compound 351, 6-chloro-5-(2-chlorophenoxy)-2-(trifluoromethyl)-1H-indole] | < 10 |
| FC(F)(F)c1cc2cc(-c3ccc(Cl)cc3C(F)(F)F)c(Cl)cc2[nH]1 [Compound 342, 6-chloro-5-[4-chloro-2-(trifluoromethyl)phenyl]-2-(trifluoromethyl)-1H-indole] | < 10 |
| FC(F)(F)c1cc2cc(-c3ccncc3Cl)c(Cl)cc2[nH]1 [Compound 361, 6-chloro-5-(3-chloropyridin-4-yl)-2-(trifluoromethyl)-1H-indole] | < 10 |
| FC(F)(F)c1ccc(-c2cc3cc(C(F)(F)F)[nH]c3cc2Cl)cc1 [Compound 345, 6-chloro-2-(trifluoromethyl)-5-[4-(trifluoromethyl)phenyl]-1H-indole] | < 10 |
| FC(F)(F)c1cc2cc(-c3cccc(Cl)c3)c(Cl)cc2[nH]1 [Compound 347, 6-chloro-5-(3-chlorophenyl)-2-(trifluoromethyl)-1H-indole] | ≤ 10 |
| Cl.FC(F)(F)c1cc2cc(Oc3ccncc3)c(Cl)cc2[nH]1 [Compound 362-0A, 6-chloro-5-(pyridin-4-yloxy)-2-(trifluoromethyl)-1H-indole hydrochloride] | > 2.5 |
| FC(F)(F)c1ccc(-c2ccc3cc(C(F)(F)F)[nH]c3c2)c(Cl)c1 [Compound 334, 6-[2-chloro-4-(trifluoromethyl)phenyl]-2-(trifluoromethyl)-1H-indole] | < 10 |
| FC(F)(F)c1cc2cc(-c3ccc(Cl)cc3)c(Cl)cc2[nH]1 [Compound 343, 6-chloro-5-(4-chlorophenyl)-2-(trifluoromethyl)-1H-indole] | < 10 |
| FC(F)(F)c1cc2cc(-c3ccc(Cl)c(Cl)c3)c(Cl)cc2[nH]1 [Compound 348, 6-chloro-5-(3,4-dichlorophenyl)-2-(trifluoromethyl)-1H-indole] | < 10 |
| FC(F)(F)c1ccc(-c2ccc3[nH]c(C(F)(F)F)cc3c2)c(Cl)c1 [Compound 332, 5-[2-chloro-4-(trifluoromethyl)phenyl]-2-(trifluoromethyl)-1H-indole] | < 10 |
| FC(F)(F)c1cc2cc(Oc3ccc(Cl)cc3)c(Cl)cc2[nH]1 [Compound 350, 6-chloro-5-(4-chlorophenoxy)-2-(trifluoromethyl)-1H-indole] | ≤ 10 |
| CN(C)Cc1ccccc1-c1cc2cc(C(F)(F)F)[nH]c2cc1Cl [Compound 360, ([2-[6-Chloro-2-(trifluoromethyl)-1H-indol-5-yl]phenyl]methyl)dimethylamine] | > 2.5 |
| FC(F)(F)c1ccc(-c2cc3cc(C(F)(F)C(F)(F)F)[nH]c3cc2Cl)c(Cl)c1 [Compound 340, 6-chloro-5-[2-chloro-4-(trifluoromethyl)phenyl]-2-(pentafluoroethyl)-1H-indole] | < 10 |
| Fc1ccc(-c2cc3cc(C(F)(F)F)[nH]c3cc2Cl)cc1 [Compound 344, 6-chloro-5-(4-fluorophenyl)-2-(trifluoromethyl)-1H-indole] | < 10 |
| CCc1cc2cc(-c3ccc(C(F)(F)F)cc3Cl)c(Cl)cc2[nH]1 [Compound 338, 6-chloro-5-[2-chloro-4-(trifluoromethyl)phenyl]-2-ethyl-1H-indole] | < 10 |
| CN(C)Cc1ccccc1-c1cc2cc(C(F)(F)F)[nH]c2cc1Cl.Cl [Compound 360-0A, ([2-[6-Chloro-2-(trifluoromethyl)-1H-indol-5-yl]phenyl]methyl)dimethylamine hydrochloride] | > 2.5 |
| N#Cc1ccccc1-c1cc2cc(C(F)(F)F)[nH]c2cc1Cl [Compound 359, 2-[6-Chloro-2-(trifluoromethyl)-1H-indol-5-yl]benzonitrile] | > 2.5 |
| FC(F)(F)c1cc2cc(-c3ccc(Cl)cc3Cl)c(Cl)cc2[nH]1 [Compound 357, 6-Chloro-5-(2,4-dichlorophenyl)-2-(trifluoromethyl)-1H-indole] | < 10 |
| FC(F)(F)c1ccc(-c2cc3cc(C(F)(F)C(F)(F)C(F)(F)F)[nH]c3cc2Cl)c(Cl)c1 [Compound 341, 6-chloro-5-[2-chloro-4-(trifluoromethyl)phenyl]-2-(heptafluoropropyl)-1H-indole] | > 10 |
| FC(F)(F)c1ccc(-c2cc3cc(C(F)(F)F)[nH]c3cc2Cl)c(Cl)c1 [Compound 336, 6-chloro-5-[2-chloro-4-(trifluoromethyl)phenyl]-2-(trifluoromethyl)-1H-indole] | < 10 |
| CCCc1cc2cc(-c3ccc(C(F)(F)F)cc3Cl)c(Cl)cc2[nH]1 [Compound 339, 6-chloro-5-[2-chloro-4-(trifluoromethyl)phenyl]-2-propyl-1H-indole] | < 10 |
| Cl.FC(F)(F)c1cc2cc(-c3ccncc3Cl)c(Cl)cc2[nH]1 [Compound 361-0A, 6-chloro-5-(3-chloropyridin-4-yl)-2-(trifluoromethyl)-1H-indole hydrochloride] | < 10 |
| FC(F)(F)c1cc2cc(-c3ccccc3Cl)c(Cl)cc2[nH]1 [Compound 346, 6-chloro-5-(2-chlorophenyl)-2-(trifluoromethyl)-1H-indole] | < 10 |
| Cl.FC(F)(F)c1cc2cc(-c3ccncc3)c(Cl)cc2[nH]1 [Compound 354, 6-chloro-5-(pyridin-4-yl)-2-(trifluoromethyl)-1H-indole hydrochloride] | > 2.5 |
| Fc1ccc(-c2cc3cc(C(F)(F)F)[nH]c3cc2Cl)c(Cl)c1 [Compound 356, 6-chloro-5-(2-chloro-4-fluorophenyl)-2-(trifluoromethyl)-1H-indole] | < 10 |
| Cc1cc2cc(-c3ccc(C(F)(F)F)cc3Cl)c(Cl)cc2[nH]1 [Compound 337, 6-chloro-5-[2-chloro-4-(trifluoromethyl)phenyl]-2-methyl-1H-indole] | < 10 |
| FC(F)(F)c1cc2cc(-c3ccncc3)c(Cl)cc2[nH]1 [Compound 349, 6-chloro-5-(pyridin-4-yl)-2-(trifluoromethyl)-1H-indole] | ≤ 10 |

The compounds below were run on liver fluke newly-excysted juveniles (NEJs) (assay: fluke motility assay, digital image-based, newly-excysted juveniles (NEJs)). Conditions: 18 h, final concentrations 10 μM-1 nM.
Type: cell-based, Fasciola hepatica
Protocol: Further testing employed a fluke motility assay. Compounds 332, 336 and 351 were screened for activity against liver fluke newly-excysted juveniles (NEJs) in a digital image-based motility assay, based on measurement of the rate of change in worm length (μm/min) during peristaltic motility. Newly excised worms were immediately placed into a solution of drug in RPMI (final concentrations 10 μM-1 nM), alongside untreated and vehicle controls, and triclabendazole/triclabendazole sulfoxide (i.e., TCBZ/TCBZ-SO) at matching concentrations, for a period of 18 h. Each treatment group consisted of 15-20 NEJs. […] Each data point represents mean length change (μm/min) in an individual worm during a five minute recording period. Horizontal lines represent data set means. ****, p<0.0001; ***, p<0.001; **, p<0.01; *, p<0.05.

| SMILES | inhibition of motility compared with TCBZ and TCBZ-SO |
| --- | --- |
| FC(F)(F)c1cc2cc(Oc3ccccc3Cl)c(Cl)cc2[nH]1 [Compound 351, 6-chloro-5-(2-chlorophenoxy)-2-(trifluoromethyl)-1H-indole] | more potent inhibition of motility than either TCBZ |
| FC(F)(F)c1ccc(-c2ccc3[nH]c(C(F)(F)F)cc3c2)c(Cl)c1 [Compound 332, 5-[2-chloro-4-(trifluoromethyl)phenyl]-2-(trifluoromethyl)-1H-indole] | more potent inhibition of motility than either TCBZ |
| FC(F)(F)c1ccc(-c2cc3cc(C(F)(F)F)[nH]c3cc2Cl)c(Cl)c1 [Compound 336, 6-chloro-5-[2-chloro-4-(trifluoromethyl)phenyl]-2-(trifluoromethyl)-1H-indole] | more potent inhibition of motility than either TCBZ |

Same assay, conditions: 18 h, tested 10 μM-1 nM

| SMILES | concentration effective on motility (effective only at) [µM] |
| --- | --- |
| C[S+]([O-])c1nc2cc(Oc3cccc(Cl)c3Cl)c(Cl)cc2[nH]1 (centres unmarked) [TCBZ-SO, triclabendazole sulfoxide, reference compound] | 10 |
| CSc1nc2cc(Cl)c(Oc3cccc(Cl)c3Cl)cc2[nH]1 [TCBZ, triclabendazole, reference compound] | 10 |

Same assay, conditions: 18 h in drug in RPMI, rate of change in worm length (μm/min)

| SMILES | concentration that completely abolished motility [µM] | concentration that significantly impacted motility [nM] |
| --- | --- | --- |
| FC(F)(F)c1cc2cc(Oc3ccccc3Cl)c(Cl)cc2[nH]1 [Compound 351, 6-chloro-5-(2-chlorophenoxy)-2-(trifluoromethyl)-1H-indole] | 1 |  |
| FC(F)(F)c1ccc(-c2ccc3[nH]c(C(F)(F)F)cc3c2)c(Cl)c1 [Compound 332, 5-[2-chloro-4-(trifluoromethyl)phenyl]-2-(trifluoromethyl)-1H-indole] | 1 |  |
| FC(F)(F)c1ccc(-c2cc3cc(C(F)(F)F)[nH]c3cc2Cl)c(Cl)c1 [Compound 336, 6-chloro-5-[2-chloro-4-(trifluoromethyl)phenyl]-2-(trifluoromethyl)-1H-indole] |  | 100 |
